Tests used:
NFκB = assay: EMSA of NFkB DNA binding in MCF7 cells; assay type: cell-based, human; settings: pre-treated 10, 1, 0.1, 0.01, 0.001 μM for two hours, TNF 2000 IU/ml 30 min, FIG. 7A
Experimental: (§1) For the EMSA, the MCF7 cells were pre-treated with varying concentrations of CpdA (10, 1, 0.1, 0.01, and 0.001 μM) and DEX (0.1 μM) for two hours and subsequently TNF-induced or non-TNF-induced during 30 min at 2000 IU/ml. After the induction period, nuclear extracts were examined in EMSA assays. Cells were washed with ice-cold PBS, scraped off, and pelleted in 15 ml of PBS by centrifugation for 5 min at 2600 rpm at 4° C. and lysed for 30 minutes at 4° C. in Totex buffer (20 mM HEPES (pH 7.9), 350 mM NaCl, 1 mM MgCl, 0.5 mM EDTA, 0.1 mM EGTA, 5 mM DTT, 20% glycerol, 1% NP-40, 0.1% PMSF, 1% aprotinin (4 mg/ml leupeptin). Supernatants from a 4000-rpm 10-min centrifugation were collected, aliquoted and stored at −20° C. until further use. Radiolabelled oligonucleotides that correspond to a consensus κB DNA-binding element of the IL-6 promoter, and of activating protein 1 (AP-1) DNA target-were used for appropriate EMSA's. These oligonucleotides of about 25 nucleotides comprise centrally the transcription factor binding motif. […] The samples were analyzed by electrophoresis on 6% native polyacrylamide gels. […] Visualization and quantitation of radioactive signals was carried out by a Phosphorlmager and scanned using a bioimaging analyzer (Personal Molecular Imager® FX Bio-Rad). […]

AP1 = assay: EMSA of AP1 DNA binding in MCF7 cells; assay type: cell-based, human; settings: FIG. 7B
Experimental: as §1

MCF7 breast cancer cells = assay: Human Cancer Pathway Finder GEarray hybridization, MCF7 cells; assay type: cell-based; settings: 10^−5 M
Experimental: mRNA of MCF7 breast cancer cells left untreated or treated with CpdA was analyzed for variation in gene expression by means of RNase protection analysis and nylon arrayfilter hybridization (SuperArray filters i.e. cancer pathway finder and stress and toxicity pathway array). From these experiments it can be derived that the synephrine analogues show a unique gene expression profile with respect to target genes involved in apoptosis, cell cycle, metastasis, angiogenesis, stress responses, and the like. At the same time, the synephrine analogue-induced gene expression prophile is distinct from the gene expression response observed with classical glucorticoids.
For the total RNA extraction, 10^5 cell were homogenized in 1 ml of TRIzol Reagent (GIBCO BRL), incubated 5 minutes at room temperature; then added 200 μl chloroform, vortexed 15 seconds. Mix was incubated on ice for 5 minutes. Phase separation was done by centrifugation at 12000 rpm for 15 minutes at 4° C. […]
Membranes were washed twice with 5 ml of pre-warmed wash solution 2×SSC, 1% SDS for 10 minutes at 68° C. with agitation at 30-40 rpm/minute. […] Visualization and quantitation of radioactive bands was carried out by a Phosphorlmager and scanned using a bioimaging analyzer (Personal Molecular Imager® FX Bio-Rad). Densitometry analysis of autoradiograms was performed using Quantity One (Bio-Rad). […]

SMILES: CNCC(Cl)c1ccc(OC(C)=O)cc1.Cl (stereo not drawn) [CpdA, 2-(4-acetoxyphenyl)-2-chloro-N-methyl-ethylammonium chloride]
- NFkB available for DNA binding (EMSA) (NFκB): significant impairment of NFkB available for DNA binding
- DNA-binding of transcription factor AP1 (EMSA) (AP1): not affected
- Expression of cancer target genes TP53, TNFRSF12, MAP2K1, RAF, ITGA6, NCAM, PDGF, MMP9, MTA1, TIMP1 (MCF7 breast cancer cells): represses
